Assay results as given in ChEMBL document CHEMBL1201862, “PubChem BioAssay data set” (2004).
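Method: 48-hour compound exposure of cells in 96-well plates, five concentrations, linear interpolation of endpoints. The concentration for 50% growth inhibition is given as GI50.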 The source made the active and inactive calls. Cut-off read from the data, not from the text of the source: active = GI50 up to about 1.1 µM and inactive = higher.

Key:
Test in all cases: NCI anticancer screen, dose series, 48 h
MDA-MB-231 = system: MDA-MB-231
Hs-578T = system: Hs-578T
A498 = system: A498
CCRF-CEM = system: CCRF-CEM
MCF7 = system: MCF7
HL-60 = system: HL-60
K562 = system: K562
TK-10 = system: TK-10
SN12C = system: SN12C
786-0 = system: 786-0
SF-539 = system: SF-539
SNB-75 = system: SNB-75
A549 = system: A549
M14 = system: M14
NCI-H522 = system: NCI-H522
MDA-N = system: MDA-N
SF-295 = system: SF-295
NCI/ADR-RES = system: NCI/ADR-RES
SK-MEL-2 = system: SK-MEL-2
SR = system: SR

Measured: GI50

CCOC(=O)c1sc2c(c1OC(=O)c1ccco1)c(=O)n(-c1ccccc1)c(=S)n2-c1ccccc1
inactive: MDA-MB-231 28.1 µM | Hs-578T 27.5 µM | A498 23 µM | CCRF-CEM 35.8 µM | MCF7 41.3 µM | HL-60 24.9 µM | K562 30.4 µM | TK-10 39.1 µM | SN12C 23.7 µM | 786-0 28.9 µM | SF-539 30.7 µM | SNB-75 25.9 µM | A549 38.6 µM | M14 28.2 µM | NCI-H522 > 100 µM | MDA-N 41.7 µM | SF-295 > 100 µM | NCI/ADR-RES 21.4 µM

S=C(N/N=C\C(=N/NC(=S)N1CCCCC1)c1ccccc1)N1CCCCC1
inactive: MDA-MB-231 2.43 µM | Hs-578T 1.82 µM | A498 1.78 µM | MCF7 2.81 µM | K562 5.68 µM | TK-10 1.8 µM | SN12C 1.95 µM | 786-0 1.85 µM | SF-539 2.36 µM | SNB-75 2.1 µM | A549 2.28 µM | M14 1.92 µM | NCI-H522 1.62 µM | MDA-N 2.89 µM | SF-295 2.01 µM | NCI/ADR-RES 2.31 µM | SK-MEL-2 2.25 µM

Cc1nn2c(=O)c([N+](=O)[O-])c(/C=C/c3ccco3)nc2s1
inactive: MDA-MB-231 63.4 µM | Hs-578T 27.8 µM | CCRF-CEM 31.7 µM | MCF7 38.5 µM | HL-60 30.8 µM | K562 36.6 µM | SR 28.2 µM | TK-10 > 100 µM | SN12C 64.9 µM | 786-0 76 µM | SF-539 47.4 µM | SNB-75 31.5 µM | A549 53.5 µM | M14 64.7 µM | NCI-H522 60.5 µM | MDA-N 26.9 µM | SF-295 91 µM | NCI/ADR-RES 46.9 µM | SK-MEL-2 57 µM

COC1CC(OC2C(C)OC(OC3C(C)OC(OC4C(C)OC(O[C@H]5CC[C@@]6(C)C(=CC[C@]7(O)[C@@H]6C[C@@H](OC(C)=O)[C@@]6(C)[C@]7(O)CC[C@@]6(O)C(C)=O)C5)CC4OC)CC3OC)CC2OC)OC(C)C1O (some centres undefined)
inactive: MDA-MB-231 > 25 µM | Hs-578T > 25 µM | CCRF-CEM > 25 µM | MCF7 > 25 µM | HL-60 > 25 µM | K562 > 25 µM | SR > 25 µM | TK-10 > 25 µM | SN12C > 25 µM | 786-0 > 25 µM | SF-539 > 25 µM | SNB-75 > 25 µM | A549 > 25 µM | M14 > 25 µM | NCI-H522 > 25 µM | MDA-N > 25 µM | SF-295 > 25 µM | NCI/ADR-RES > 25 µM | SK-MEL-2 > 25 µM

O=C1CCCC2(c3ccccc3)Nc3ccccc3N12 (centres undefined)
inactive: MDA-MB-231 > 100 µM | Hs-578T > 100 µM | CCRF-CEM > 100 µM | MCF7 > 100 µM | HL-60 55.6 µM | K562 82.6 µM | SR 67.8 µM | TK-10 > 100 µM | SN12C > 100 µM | 786-0 > 100 µM | SF-539 > 100 µM | SNB-75 > 100 µM | A549 > 100 µM | M14 > 100 µM | NCI-H522 > 100 µM | MDA-N > 100 µM | SF-295 97.1 µM | NCI/ADR-RES > 100 µM | SK-MEL-2 > 100 µM

C1CNOCCCONCCCNOCCCONC1
inactive: MDA-MB-231 26.8 µM | Hs-578T 59.3 µM | A498 42.5 µM | CCRF-CEM > 100 µM | MCF7 37.5 µM | HL-60 51.8 µM | K562 > 100 µM | TK-10 31 µM | SN12C 77.4 µM | 786-0 > 100 µM | SNB-75 > 100 µM | A549 91.8 µM | M14 72.1 µM | NCI-H522 67.6 µM | MDA-N > 100 µM | SF-295 93.1 µM | NCI/ADR-RES 95.3 µM | SK-MEL-2 25.1 µM

O=C(N/N=C(COc1ccc(Cl)cc1)\N=C\c1cccnc1)c1ccncc1
inactive: MDA-MB-231 > 100 µM | Hs-578T 23.7 µM | A498 52.6 µM | CCRF-CEM > 100 µM | MCF7 > 100 µM | HL-60 > 100 µM | K562 64.4 µM | TK-10 > 100 µM | SN12C > 100 µM | 786-0 > 100 µM | SF-539 57.3 µM | SNB-75 55.3 µM | A549 > 100 µM | M14 > 100 µM | NCI-H522 23.5 µM | MDA-N 25.5 µM | SF-295 > 100 µM | NCI/ADR-RES 57.4 µM | SK-MEL-2 > 100 µM

COc1c2cc([N+](=O)[O-])cc1CNC(=O)CN1CCOCCOCCN(CCOCCOCC1)CC(=O)NC2
inactive: MDA-MB-231 > 100 µM | Hs-578T > 100 µM | A498 > 100 µM | CCRF-CEM > 100 µM | MCF7 > 100 µM | HL-60 > 100 µM | K562 > 100 µM | TK-10 > 100 µM | SN12C > 100 µM | 786-0 > 100 µM | SNB-75 > 100 µM | A549 > 100 µM | M14 > 100 µM | NCI-H522 > 100 µM | MDA-N > 100 µM | SF-295 > 100 µM | NCI/ADR-RES > 100 µM | SK-MEL-2 > 100 µM

OC1OC(c2ccc[nH]2)C(F)(F)C(F)(F)C1(F)F (centres undefined)
inactive: MDA-MB-231 > 100 µM | Hs-578T > 100 µM | A498 > 100 µM | CCRF-CEM 73.6 µM | MCF7 > 100 µM | HL-60 43.5 µM | TK-10 > 100 µM | SN12C > 100 µM | 786-0 > 100 µM | SF-539 > 100 µM | SNB-75 60.8 µM | A549 > 100 µM | M14 > 100 µM | NCI-H522 > 100 µM | MDA-N > 100 µM | SF-295 > 100 µM | NCI/ADR-RES > 100 µM | SK-MEL-2 > 100 µM

COc1ccc2c(c1OC)C(C(Cl)(Cl)Cl)N1CCc3cc4c(cc3C1=C2)OCO4 (centres undefined)
inactive: MDA-MB-231 23.5 µM | Hs-578T 18.4 µM | A498 67.6 µM | CCRF-CEM 6.71 µM | MCF7 28.1 µM | HL-60 15.2 µM | TK-10 27 µM | SN12C 13.1 µM | 786-0 15.2 µM | SF-539 35 µM | SNB-75 46.5 µM | A549 35.6 µM | M14 28.4 µM | NCI-H522 13.9 µM | MDA-N 15.4 µM | SF-295 9.31 µM | NCI/ADR-RES 44.6 µM | SK-MEL-2 17.2 µM

Cc1ccc(CC[PH](=O)CCc2ccc(C)nc2)cn1
inactive: MDA-MB-231 > 100 µM | Hs-578T > 100 µM | CCRF-CEM > 100 µM | MCF7 > 100 µM | HL-60 > 100 µM | K562 > 100 µM | SR > 100 µM | TK-10 > 100 µM | SN12C > 100 µM | 786-0 > 100 µM | SF-539 > 100 µM | M14 > 100 µM | NCI-H522 > 100 µM | MDA-N > 100 µM | SF-295 > 100 µM | NCI/ADR-RES > 100 µM
